From patent publication US20210246128A1, “BICYCLE TOPOISOMERASE I INHIBITING COMPOUNDS, PROCESS FOR PREPARATION AND USE THEREOF” (Council of Scientific & Industrial Research, priority 2018, published 2021)
Like-named read-outs stand apart in the source and are kept apart here.

Assays:
Caco-2 cell monolayer = conditions: cited from earlier work
[1] = tested on: noncancerous human embryonic kidney (HEK293) cells; assay: Cytotoxicity assay, HEK293; conditions: read-out: IC50 cytotoxicity HEK293; HEK293 (noncancerous)
[2] = Solubility assay (pH 7.4 pION buffer, UV); assay type: physicochemical; conditions: pH 7.4 buffer, 18 hours incubation
Description: 5 μL of 20 mM DMSO stock from the stock plate was added to the reaction deep well plate containing 495 μL of pH 7.4 pION buffer (including DMSO control) respectively and the samples were mixed and incubated for 18 hours. The plate was sealed well during the incubation process. The DMSO content in the sample was <1.0%. The concentration in deep well plates was 200 μM. 4 μL of 20 mM stock (including DMSO control) was added to 996 μL of acetonitrile to prepare the working stock plate. 75 μL of working stock was added to 75 μL of blank buffer and read on spectrophotometer as reference plate at 240 nm. At the end of the incubation period, 100 μL of sample from storage plate was vacuum filtered using a filter plate. This step wets the filters and the filtrate was discarded. Another 200 μL of the sample from deep well plate was vacuum filtered in to a new filter collection plate. 75 μL of the filtrate from the filter collection plate was transferred to a UV sample plate. 75 μL of acetonitrile was added to this UV plate. The solution was mixed and the spectrum was read using the UV spectrophotometer at 240 nm. Plates were read on spectramax using SoftMax Pro software version 5.3.

TDP1+/+ MEFs = assay: Cytotoxicity assay, TDP1+/+ MEFs; assay type: cell-based
Description: (§1) The percent inhibition of viability for each concentration of compound was calculated with respect to the control and IC50 (μM) values were estimated. Each point corresponds to the mean±S.D of at least three experiments in duplicates. Error bars represent SD (n=3).

TDP1−/− cells = assay: Cytotoxicity assay, TDP1−/−; conditions: read-out: IC50 cytotoxicity TDP1−/−
Description: as §1

Plasma stability assay = assay type: in vitro ADME; conditions: pH 7.4, 37° C., 1 μM
Description: The stock solution of 10 mM of test compound in DMSO was prepared and stored at 4° C. 25 μM stock of test compound was prepared in acetonitrile: water by diluting from 10 mM stock (i.e. 2.5 μL of 10 mM stock solution was added to 997.5 μL of acetonitrile: water (50:50). The frozen plasma was thawed at room temperature and centrifuged at 1400×RCF (relative centrifugal force) 4° C., for 15 minutes. Approximately 90% of the clear supernatant fraction was transferred to a separate tube and was used for the assay.
For 0 min samples, plasma was heat inactivated at 56° C. for 45 min. To 72 μL of heat inactivated plasma, 3 μL of 25 μM test compound was added. A 25 μL aliquot of the mixture was taken and crashed with 200 μL of acetonitrile containing internal standard and further processed along with other time points. For other time point samples, final working stock of 1 μM was prepared by diluting in plasma (i.e. 8 μL of 25 μM acetonitrile:water stock was added to 192 μL of plasma). 200 μL of plasma containing the test compound was incubated for 2 hrs at 37° C. in shaker water bath with gentle shaking. 25 μL aliquot of sample at 0, 15, 30, 60 and 120 min was precipitated immediately with 200 μL of acetonitrile containing internal standard and centrifuged at 4000×RCF, 4° C. for 20 minutes. 150 μL of supernatant was diluted with 150 μL of water and analyzed on LC-MS/MS.

MCF7 cells = assay: γH2AX assay (immunofluorescence confocal microscopy); assay type: cell-based, human; conditions: after washing out from media
Description: Quantification of comparative ability of CPT and 18 to form DSBs was quantified after 3 hours and 5 hours by measuring γH2AX intensity per nucleus after treatment and after the removal of 18 or CPT was obtained from immunofluorescence confocal microscopy. […] But CPT-induced γH2AX have a short half-life. […] (T. Furuta. J. Biol. Chem. 2003, 278, 20303-20312).

[3] = Cytotoxicity assay, HEK293; conditions: human
[4] = tested on: human ovarian adenocarcinoma cell lines (NIH:OVCAR-3); assay: Cytotoxicity assay, NIH:OVCAR-3; conditions: OVCAR-3, read-out: IC50 cytotoxicity NIH:OVCAR-3
[5] = tested on: human colon carcinoma cell lines (HCT116); assay: Cytotoxicity assay, HCT116; conditions: HCT-116, read-out: IC50 cytotoxicity HCT116
calf thymus (CT) DNA = assay: Ethidium bromide (EtBr) displacement assay; assay type: binding; conditions: 1 μM EtBr, 5 nM CT DNA, 0-200 μM compound
[6] = Caco-2 permeability (21 day culture of Caco-2 cell monolayer); assay type: in vitro ADME; conditions: human; for recovery at 120 min, 10 μM: Caco-2, pH 7.4, Caco-2
Description: 5 mL of 100 mM sodium pyruvate, 5 mL of 10× non-essential amino acids, 5 mL of penstrep were added to 100 mL of heat inactivated foetal bovine serum to 385 mL of DMEM aseptically and mixed thoroughly. One vial of Hank's balanced salt (Sigma-H1387) was dissolved in 900 mL of milli Q water; adjusted the pH to 7.4 and made up the volume to 1000 mL with the same. The solution was filter sterilized and stored at 4° C. Stock solution of test compound (10 mM) was prepared in DMSO. 10 mM stock was diluted with HBSS Buffer to a final concentration of 10 μM.
250 μL of DMEM was added to the basal compartment of 96 well multi-screen Caco-2 plate and seeded 12000 cells/well (0.16×10^6 cells/ml) in all the apical wells required and one well with only media as blank without cells, placed the Caco-2 plate in CO2 incubator at 37° C. for proliferation of cells.
On the day of assay, medium was removed and washed twice with HBSS Buffer and incubated with HBSS buffer for 30 min in an incubator and wells with TEER values >230 ohm·cm^2 were selected for the incubation. 75 μL of test compound was added to apical wells and 250 μL of HBSS buffer with 2% BSA was added to basal wells. 25 μL of basal samples was collected at 120 min and processed as stated below.
250 μL of test compound was added to basal wells and 75 μL of HBSS buffer with 2% BSA was added to apical wells. 25 μL of apical samples was collected at 120 min and processed as stated below.
Single point calibration curve in HBSS buffer with 2% BSA was used. Donor samples were diluted 1:1 with HBSS containing 2% BSA and receiver samples were diluted with 1.1 HBSS buffer and precipitated with 200 μL of acetonitrile containing internal standard and vortexed for 5 min @ 1000 rpm, centrifuged at 4000 rpm for 10 min. Finally 100 μL of supernatant was diluted with 200 μL of water and submitted for LC-MS/MS analysis.

[7] = Lipophilicity assay (octanol/buffer Log D); conditions: octanol / sodium phosphate buffer pH 7.4

| Compound | Papp Apical to Basal (Caco-2 cell monolayer) | Papp Basal to Apical (Caco-2 cell monolayer) | IC50 [1] [nM] | Avg. Solubility (μg/mL) at pH 7.4 [2] [μg/mL] | IC50 (TDP1+/+ MEFs) [nM] | IC50 (TDP1−/− cells; TDP1−/−) [nM] | Mean % remaining at 2 hrs in human Plasma (Plasma stability assay) [%] | persistence of γH2AX foci / DSBs after removal of drug (MCF7 cells) | IC50 [3] [nM] | IC50 [4] [nM] | IC50 [5] [nM] | IC50 (TDP1−/− cells) [nM] | displacement of bound EtBr (DNA intercalation) (calf thymus (CT) DNA) | recovery at 120 min, 10 μM ([6]; read-out: A to B % Recovery) [%] | recovery at 120 min, 10 μM ([6]; read-out: B to A % Recovery) [%] | Papp A→B at 120 min, 10 μM ([6]; pH 7.4, Caco-2, 10 μM, 120 min, read-out: Papp Apical to Basal) [×10⁻⁶ cm/s] | Papp B→A at 120 min, 10 μM ([6]; pH 7.4, Caco-2, 10 μM, 120 min, read-out: Papp Basal to Apical) [×10⁻⁶ cm/s] | Log D @ pH 7.40 Mean [7] |
| --- | --- | --- | --- | --- | --- | --- | --- | --- | --- | --- | --- | --- | --- | --- | --- | --- | --- | --- |
| CC[C@@]1(O)C(=O)OCc2c1cc1n(c2=O)Cc2cc3ccccc3nc2-1 [Camptothecin, reference compound] | 10.5 10^−6 cm/sec | 35.8 10^−6 cm/sec | 8750 ± 630 | 2.5 | 2800 ± 470 | 1570 ± 210 | 15.70 | faster disappearance of γH2AX foci | – | – | – | – | – | – | – | – | – | – |
| COc1ccc(-c2ccc3ncc(-c4nnco4)c(NCCCn4ccnc4)c3c2)cc1 [Compound 18, N-(3-(1H-imidazol-1-yl)propyl)-6-(4-methoxyphenyl)-3-(1,3,4-oxadiazol-2-yl)quinolin-4-amine] | – | – | – | – | – | – | 93.34 | persistent and less reversible DNA double-strand breaks (DSBs) | 8340 | 2350 | 2340 | 1020 | no displacement of fluorophore even at high concentration (200 μM) | 33.2 | 44.2 | 7.42 | 11.6 | 2.48 |
